The target in assay [1] is T1, menin (Homo sapiens, UniProt O00255, T541A).
T1 construct: Menin (a.a. 1-610-6×his tag)
T1 sequence (O00255 with tags, fused parts or gaps T541A): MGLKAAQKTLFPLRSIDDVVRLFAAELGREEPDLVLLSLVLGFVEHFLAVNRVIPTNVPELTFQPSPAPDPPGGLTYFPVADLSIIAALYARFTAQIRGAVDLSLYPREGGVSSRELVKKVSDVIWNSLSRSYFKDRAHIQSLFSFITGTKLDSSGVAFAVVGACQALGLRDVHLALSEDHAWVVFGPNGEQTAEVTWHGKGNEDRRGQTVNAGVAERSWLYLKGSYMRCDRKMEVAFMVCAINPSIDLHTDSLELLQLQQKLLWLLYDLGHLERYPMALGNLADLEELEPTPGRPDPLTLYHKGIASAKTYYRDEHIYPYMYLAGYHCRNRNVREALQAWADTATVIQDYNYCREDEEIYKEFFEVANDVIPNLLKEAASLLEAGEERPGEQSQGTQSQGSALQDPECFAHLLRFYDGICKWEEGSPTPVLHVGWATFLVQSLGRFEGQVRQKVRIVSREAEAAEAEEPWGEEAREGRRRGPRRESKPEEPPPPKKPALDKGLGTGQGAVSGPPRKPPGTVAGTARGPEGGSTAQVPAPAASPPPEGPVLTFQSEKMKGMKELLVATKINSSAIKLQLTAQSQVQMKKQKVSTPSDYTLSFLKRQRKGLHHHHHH
The assay can be described thus: Menin/MLL homogenous time-resolved fluorescence (HTRF) assay. The format is binding. Summed up:
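Displacement of 75 nM FITC-MBM1 from terbium-cryptate-labeled His-tagged menin 1-610 ([…]) was read as the 520/490 nm HTRF ratio. Compound (11-point, 3-fold series) got 5 min with menin before peptide, then 15 min at ambient; 0.5% DMSO, Tris pH 7.5.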

Assay [2] relates to MOLM14. The assay can be described thus: Proliferation assay B (spheroid assay) MOLM14. In kind it is cell-based, human. The settings on record: MOLM14 cells, confluence at day 8, absolute IC50, read-out: (3b) Spheroid assay MOLM14 (IC50(μM)) Assay B. The method in brief: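 IC50 derived from % effect on day-8 imaged confluence, scaled between DMSO-treated cells (high) and 1 μM staurosporine (low), using a variable-slope fit constrained 0-100%. Cells seeded as spheroids in ultra-low-attachment plates and exposed to compound for 8 days, 0.3% DMSO.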

The mark [3] stands for this setting: location 2, read-out: (2) location 2 Menin HTRF assay (IC50 (nM)).

Read-outs that look alike come from different tables or passages of the source. Bounds are passed on as bounds.

Turning to `CNc1nc(N2CCC3(CC(Nc4ccc5[nH]c(=O)[nH]c5c4)C3)C2)c2cc(CC(F)(F)F)sc2n1` (single isomer, unassigned) [Compound 394], the concentration for half-maximal inhibition (IC50) in assay [1] (setting [3]) is 13.8 nM; in assay [2] (Homo sapiens, MOLM-14, 192 h), greater than 3.75 µM.

In the case of `CNc1nc(N2CCC3(CC(Nc4ccc5oc(=O)[nH]c5c4)C3)C2)c2cc(CC(F)(F)F)sc2n1` (single isomer, unassigned) [Compound 397], the IC50 was 4.4 nM in assay [1] (setting [3]) and greater than 3.75 µM in assay [2] (Homo sapiens, MOLM-14, 192 h).

As to `CNc1nc(N2CCC3(CC(Nc4ccc5oc(=O)[nH]c5c4)C3)C2)c2cc(CC(F)(F)F)sc2n1` (single isomer, unassigned) [Compound 398], the IC50 in assay [1] (setting [3]) was 16.2 nM; in assay [2], greater than 3.75 µM.

As to `CC1CN(C(=O)c2ccc(NC3CC4(CCN(c5ncnc6sc(CC(F)(F)F)cc56)C4)C3)cc2)CC(C)O1` (single isomer, unassigned) [Compound 405], the IC50 in assay [1] (setting [3]) was 1100 nM; in assay [2] (Homo sapiens, MOLM-14, 192 h) it was greater than 3.75 µM.

Regarding `CC1CN(C(=O)c2ccc(NC3CC4(CCN(c5ncnc6sc(CC(F)(F)F)cc56)C4)C3)cc2)CC(C)O1` (single isomer, unassigned) [Compound 406], the IC50 in assay [1] (setting [3]) was 36 nM; in assay [2], greater than 3.75 µM.

As to `COC[C@H]1COCCN1C(=O)c1ccc(NC2CC3(CCN(c4ncnc5sc(CC(F)(F)F)cc45)C3)C2)cc1` (single isomer, unassigned) [Compound 407], the IC50 is 1020 nM in assay [1] (setting [3]) and greater than 3.75 µM in assay [2] (Homo sapiens, MOLM-14, 192 h).

`COC[C@H]1COCCN1C(=O)c1ccc(NC2CC3(CCN(c4ncnc5sc(CC(F)(F)F)cc45)C3)C2)cc1` (single isomer, unassigned) [Compound 408]: the IC50 in assay [1] (setting [3]) is 16.4 nM; in assay [2] it was greater than 3.75 µM.

As to `O=C(c1ccc(NC2CC3(CCN(c4ncnc5sc(CC(F)(F)F)cc45)C3)C2)cc1)N1CCS(=O)(=O)CC1` (single isomer, unassigned) [Compound 411], the IC50 was 101 nM in assay [1] (setting [3]) and greater than 3.75 µM in assay [2] (Homo sapiens, MOLM-14, 192 h).

For the molecule `O=C(c1ccc(NC2CC3(CCN(c4ncnc5sc(CC(F)(F)F)cc45)C3)C2)cc1)N1CCS(=O)(=O)CC1` (single isomer, unassigned) [Compound 412], the IC50 in assay [1] (setting [3]) is 7510 nM; in assay [2], greater than 3.75 µM.

Turning to `CNC(=O)c1cnc(NC2CC3(CCN(c4ncnc5sc(CC(F)(F)F)cc45)C3)C2)cn1` (single isomer, unassigned) [Compound 418], the IC50 in assay [1] (setting [3]) was 749 nM; in assay [2] (Homo sapiens, MOLM-14, 192 h) it was greater than 3.75 µM.

On to `CNC(=O)c1cnc(NC2CC3(CCN(c4ncnc5sc(CC(F)(F)F)cc45)C3)C2)cn1` (single isomer, unassigned) [Compound 419], for which the values for the IC50 in assay [1] (setting [3]) and in assay [2] were 10.8 nM and 3.04 µM, respectively.

Turning to `O=C(c1ccc(NC2CC3(CCN(c4ncnc5sc(CC(F)(F)F)cc45)C3)C2)nn1)N1CCOCC1` (single isomer, unassigned) [Compound 420], the concentration for half-maximal inhibition (IC50) in assay [1] (setting [3]) was 3380 nM; in assay [2] (Homo sapiens, MOLM-14, 192 h), greater than 3.75 µM.

For the molecule `O=C(c1ccc(NC2CC3(CCN(c4ncnc5sc(CC(F)(F)F)cc45)C3)C2)nn1)N1CCOCC1` (single isomer, unassigned) [Compound 421], the IC50 in assay [1] (setting [3]) was 208 nM; in assay [2], greater than 3.75 µM.

Take `CNC(=O)c1ccc(N[C@@H]2CC[C@@]3(CCN(c4ncnc5sc(CC(F)(F)F)cc45)C3)C2)cc1` (stereo in doubt) [Compound 134]: the IC50 in assay [1] (setting [3]) is 1.6 nM; in assay [2] (Homo sapiens, MOLM-14, 192 h), 1.29 µM.

Regarding `CNC(=O)c1ccc(N[C@H]2CC[C@@]3(CCN(c4ncnc5sc(CC(F)(F)F)cc45)C3)C2)cc1` (stereo in doubt) [Compound 135], the IC50 was 23.9 nM in assay [1] (setting [3]) and greater than 3.75 µM in assay [2] (Homo sapiens, MOLM-14, 192 h).

`CNC(=O)c1ccc(N[C@@H]2CC[C@]3(CCN(c4ncnc5sc(CC(F)(F)F)cc45)C3)C2)cc1` (stereo in doubt) [Compound 136]: the IC50 was 409 nM in assay [1] (setting [3]) and greater than 3.75 µM in assay [2] (Homo sapiens, MOLM-14, 192 h).

`CNC(=O)c1ccc(N[C@H]2CC[C@]3(CCN(c4ncnc5sc(CC(F)(F)F)cc45)C3)C2)cc1` (stereo in doubt) [Compound 137]: the IC50 in assay [1] (setting [3]) was 5.7 nM; in assay [2] (Homo sapiens, MOLM-14, 192 h), greater than 3.75 µM.

For the molecule `FC(F)(F)Cc1cc2c(N3CC[C@@]4(CC[C@@H](Nc5ccc(-c6cc[nH]n6)cc5)C4)C3)ncnc2s1` (stereo in doubt) [Compound 139], the IC50 in assay [1] (setting [3]) worked out at 3.5 nM; in assay [2] (Homo sapiens, MOLM-14, 192 h), 0.56 µM.

As for `FC(F)(F)Cc1cc2c(N3CC[C@@]4(CC[C@H](Nc5ccc(-c6cc[nH]n6)cc5)C4)C3)ncnc2s1` (stereo in doubt) [Compound 140], the IC50 is 30.9 nM in assay [1] (setting [3]) and 1.82 µM in assay [2] (Homo sapiens, MOLM-14, 192 h).

On to `FC(F)(F)Cc1cc2c(N3CC[C@]4(CC[C@@H](Nc5ccc(-c6cc[nH]n6)cc5)C4)C3)ncnc2s1` (stereo in doubt) [Compound 141], for which the IC50 was 3.9 nM in assay [1] (setting [3]) and 2.3 µM in assay [2] (Homo sapiens, MOLM-14, 192 h).

As for `FC(F)(F)Cc1cc2c(N3CC[C@]4(CC[C@H](Nc5ccc(-c6cc[nH]n6)cc5)C4)C3)ncnc2s1` (stereo in doubt) [Compound 142], the IC50 in assay [1] (setting [3]) was determined as 45.7 nM; in assay [2] (Homo sapiens, MOLM-14, 192 h), 0.6 µM.

As to `CNC(=O)c1ccc(NC2CC3(CCN(c4ncnc5sc(CC(F)(F)F)cc45)C3)C2)c(F)c1` (stereo not drawn) [Compound 66], the IC50 in assay [1] (setting [3]) is 26.8 nM; in assay [2] (Homo sapiens, MOLM-14, 192 h) it was greater than 3.75 µM.

For the molecule `CNC(=O)c1ccc(NC2CC3(CCN(c4ncnc5sc(CC(F)(F)F)cc45)C3)C2)cc1OCCN(C)C` (stereo not drawn) [Compound 76], the IC50 in assay [1] (setting [3]) is 354 nM; in assay [2] (Homo sapiens, MOLM-14, 192 h) it was greater than 3.75 µM.

With `O=C(NCCO)c1ccc(NC2CC3(CCN(c4ncnc5sc(CC(F)(F)F)cc45)C3)C2)cc1` (stereo not drawn) [Compound 83], the IC50 in assay [1] (setting [3]) is 58.7 nM; in assay [2] (Homo sapiens, MOLM-14, 192 h), greater than 3.75 µM.

Regarding `COCCNC(=O)c1ccc(NC2CC3(CCN(c4ncnc5sc(CC(F)(F)F)cc45)C3)C2)cc1` (stereo not drawn) [Compound 85], the IC50 in assay [1] (setting [3]) stood at 0.7 nM; in assay [2] (Homo sapiens, MOLM-14, 192 h), 1.13 µM.

`O=C(NCCN1CCOCC1)c1ccc(NC2CC3(CCN(c4ncnc5sc(CC(F)(F)F)cc45)C3)C2)cc1` (stereo not drawn) [Compound 87]: the IC50 in assay [1] (setting [3]) is 191 nM; in assay [2] (Homo sapiens, MOLM-14, 192 h) it was greater than 3.75 µM.

As to `CS(=O)(=O)N[C@H]1CC[C@H](NC2CC3(CCN(c4ncnc5sc(CC(F)(F)F)cc45)C3)C2)CC1` (stereo partly drawn) [Compound 102], the IC50 in assay [1] (location 1, read-out: (2) location 1 Menin HTRF assay (IC50 (nM))) was 342 nM; in assay [1] (setting [3]), 362 nM; in assay [2] (Homo sapiens, MOLM-14, 192 h), greater than 3.75 µM.

Turning to `CCS(=O)(=O)N[C@H]1CC[C@H](CNC2CC3(CCN(c4ncnc5sc(CC(F)(F)F)cc45)C3)C2)CC1` (stereo partly drawn) [Compound 106], the IC50 in assay [1] (setting [3]) came to 17.8 nM; in assay [2] (Homo sapiens, MOLM-14, 192 h) it was 3.39 µM.

`O=C1NCCN1Cc1ccc(NC2CC3(CCN(c4ncnc5sc(CC(F)(F)F)cc45)C3)C2)cc1` (stereo not drawn) [Compound 107]: the IC50 in assay [1] (setting [3]) is 22.1 nM; in assay [2] (Homo sapiens, MOLM-14, 192 h) it was greater than 3.75 µM.

Regarding `CNC(=O)c1ccc(NC2CC3(CCN(c4ncnc5sc(CC(F)(F)F)cc45)C3)C2)cc1F` (stereo not drawn) [Compound 203], the IC50 was determined as 2.8 nM in assay [1] (setting [3]) and 2.39 µM in assay [2] (Homo sapiens, MOLM-14, 192 h).

Take `CNC(=O)c1ccc(NC2CC3(CCN(c4ncnc5sc(CC(F)(F)F)cc45)C3)C2)c(C)c1` (stereo not drawn) [Compound 212]: the IC50 in assay [1] (setting [3]) was 58.1 nM; in assay [2] it was greater than 3.75 µM.

Take `CNC(=O)c1ccc(NC2CC3(CCN(c4ncnc5sc(CC(F)(F)F)cc45)C3)C2)cc1C` (stereo not drawn) [Compound 237]: the IC50 in assay [1] (setting [3]) is 489 nM; in assay [2] it was greater than 3.75 µM.

`CS(=O)(=O)N[C@H]1CC[C@@H](NC2CC3(CCN(c4ncnc5sc(CC(F)(F)F)cc45)C3)C2)CC1` (stereo partly drawn) [Compound 272]: the IC50 in assay [1] (setting [3]) turned out to be 18 nM; in assay [2], 2.56 µM.

Turning to `CS(=O)(=O)N1CC(CC(C#N)c2ccc(NC3CC4(CCN(c5ncnc6sc(CC(F)(F)F)cc56)C4)C3)cc2)C1` (stereo not drawn) [Compound 339], the IC50 came to 5.1 nM in assay [1] (setting [3]) and 2.41 µM in assay [2] (Homo sapiens, MOLM-14, 192 h).

On to `CS(=O)(=O)N1CCN(CC(O)c2ccc(NC3CC4(CCN(c5ncnc6sc(CC(F)(F)F)cc56)C4)C3)cc2)CC1` (stereo not drawn) [Compound 354], for which the IC50 in assay [1] (setting [3]) was 43.7 nM; in assay [2] (Homo sapiens, MOLM-14, 192 h) it was greater than 3.75 µM.

As to `CS(=O)(=O)N1CCC(C(N)=O)(c2ccc(NC3CC4(CCN(c5ncnc6sc(CC(F)(F)F)cc56)C4)C3)cc2)CC1` (stereo not drawn) [Compound 376], the IC50 is 30.6 nM in assay [1] (setting [3]) and greater than 3.75 µM in assay [2] (Homo sapiens, MOLM-14, 192 h).

Consider `O=C(c1ccc(NC2CC3(C2)CN(c2ncnc4sc(CC(F)(F)F)cc24)C3)cc1)N1CCOCC1` [Compound 423], for which the IC50 in assay [1] (setting [3]) was 135 nM; in assay [2] (Homo sapiens, MOLM-14, 192 h), greater than 3.75 µM.

The record behind these values is patent publication US11396517B1, “Exo-aza spiro inhibitors of menin-MLL interaction” (Janssen Pharmaceutica NV, priority 2017, dated 2022).
